The text below walks through data of ChEMBL document CHEMBL1201862, “PubChem BioAssay data set” (2004).

Some test systems named below: 786-0; A498; ACHN; CAKI-1; CCRF-CEM; EKVX; HCT-116; IGROV-1; Malme-3M; NCI/ADR-RES; OVCAR-4; OVCAR-5; OVCAR-8; PC-3; RXF 393; SF-268; SNB-75; T47D; U-251; UACC-62.
Common to all, as to test: NCI tumour cell line growth inhibition, 48 h

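Each compound was tested at five concentrations against cells in 96-well plates for 48 hours. GI50 = concentration required for 50% inhibition of growth.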 The source made the active and inactive calls. Rule as the data show it: active = GI50 up to about 1.1 µM and inactive = higher. Some results are limits rather than exact numbers.

For `CCN(CC)Cc1cc(Nc2c3ccccc3nc3c4ccccc4n(C)c23)cc(CN(CC)CC)c1O`, the GI50 was 3.48 µM (inactive) in the test on 786-0; 6.07 µM (inactive) in the test on A498; 5.43 µM (inactive) with ACHN; 13.5 µM (inactive) with CAKI-1; 2.4 µM (inactive) in the test with CCRF-CEM; 4.59 µM (inactive) in the test with EKVX. In addition, the GI50 was 2.89 µM (inactive) in the test with HCT-116; 9.98 µM (inactive) in the test on IGROV-1; 2.74 µM (inactive) in the test on Malme-3M; 2.91 µM (inactive) with NCI/ADR-RES; 4.43 µM (inactive) in the test with OVCAR-4; 6.84 µM (inactive) in the test with OVCAR-5. Moreover, the GI50 was 4.39 µM (inactive) in the test with OVCAR-8; 2.42 µM (inactive) in the test on PC-3; 3.16 µM (inactive) in the test with RXF 393; 6.78 µM (inactive) in the test on SF-268; 12 µM (inactive) in the test on SNB-75; 3.18 µM (inactive) with T47D. Further, the GI50 is 5.27 µM (inactive) in the test with U-251 and 2.81 µM (inactive) in the test on UACC-62.
Take `CC(=O)N1CCc2c([nH]c3ccc(Br)cc23)C1c1ccccc1` (stereo not given): the GI50 was 3.28 µM (inactive) in the test on 786-0; > 10 µM (inactive) in the test on A498; > 7.36 µM (inactive) in the test with ACHN; > 9.53 µM (inactive) with CAKI-1; 1.47 µM (inactive) with CCRF-CEM; > 10 µM (inactive) in the test on EKVX. The GI50 in the test with HCT-116 was 1.11 µM (active); in the test with IGROV-1 it was > 7.33 µM (inactive); with Malme-3M, > 10 µM (inactive); in the test on NCI/ADR-RES, 4.16 µM (inactive); in the test with OVCAR-4, > 10 µM (inactive); in the test on OVCAR-5, > 10 µM (inactive). Besides, the GI50 in the test on OVCAR-8 was > 5.07 µM (inactive); with PC-3, 1.12 µM (active); in the test with RXF 393, > 10 µM (inactive); in the test with SF-268, > 9.02 µM (inactive); with SNB-75 it was 7.96 µM (inactive); in the test with T47D, > 10 µM (inactive). The GI50 in the test on U-251 was 3.69 µM (inactive); in the test with UACC-62, > 7.13 µM (inactive).
Turning to `CC1=C(O)C(O)=C(C2=C(O)C(O)=C(C)C(=O)C2=O)C(=O)C1=O`, the GI50 in the test on 786-0 was 41.7 µM (inactive); in the test with A498, 31 µM (inactive); in the test on ACHN it was 28.1 µM (inactive); in the test on CAKI-1 it was 40.7 µM (inactive); in the test with CCRF-CEM, 60 µM (inactive); in the test with EKVX it was > 100 µM (inactive). For the same molecule, the GI50 is 46.7 µM (inactive) in the test with HCT-116; 43.4 µM (inactive) with IGROV-1; 20.8 µM (inactive) with Malme-3M; 36 µM (inactive) in the test on NCI/ADR-RES; 24.6 µM (inactive) in the test on OVCAR-4; 41.6 µM (inactive) in the test on OVCAR-5. For the same molecule, the GI50 in the test with OVCAR-8 was 47.4 µM (inactive); in the test on PC-3 it was 60.8 µM (inactive); in the test on RXF 393, 26.7 µM (inactive); in the test on SF-268, 56.9 µM (inactive); in the test on SNB-75, 76.2 µM (inactive); in the test with T47D, 37.5 µM (inactive). The GI50 is 40.9 µM (inactive) in the test on U-251 and 18.6 µM (inactive) in the test with UACC-62.
Turning to `C[S+](C)C1(c2ccccc2)C(=O)c2ccccc2C1=O`, the GI50 in the test on 786-0 is > 100 µM (inactive); in the test with A498 it was 73.8 µM (inactive); with ACHN, > 65.6 µM (inactive); with CAKI-1, > 100 µM (inactive); in the test with CCRF-CEM it was > 46.9 µM (inactive); in the test on EKVX it was 34 µM (inactive). Moreover, the GI50 in the test with HCT-116 was > 54.3 µM (inactive); with IGROV-1 it was > 69.3 µM (inactive); in the test with Malme-3M, > 100 µM (inactive); in the test on NCI/ADR-RES, 24.8 µM (inactive); in the test on OVCAR-4, > 47.6 µM (inactive); in the test on OVCAR-5, > 49.3 µM (inactive). Moreover, the GI50 in the test with OVCAR-8 is > 54.7 µM (inactive); in the test on PC-3, 76.2 µM (inactive); in the test with RXF 393, 33.3 µM (inactive); in the test on SF-268, 60.3 µM (inactive); with SNB-75 it was 29.2 µM (inactive); in the test with T47D, 29.4 µM (inactive). For the same molecule, the GI50 was 22.5 µM (inactive) with U-251 and > 41 µM (inactive) in the test on UACC-62.
As for `Cc1cccc2c(N)c3cccc(C(=O)NCCN(C)C)c3nc12`, the GI50 in the test on 786-0 is < 0.0199 µM (active); in the test with A498, 0.157 µM (active); in the test with ACHN, < 0.0163 µM (active); in the test with CAKI-1, < 0.015 µM (active); in the test with CCRF-CEM it was < 0.01 µM (active); in the test on EKVX, 0.0583 µM (active). The GI50 in the test on HCT-116 is 0.0236 µM (active); in the test on IGROV-1 it was < 0.0291 µM (active); in the test with Malme-3M it was 0.173 µM (active); in the test with NCI/ADR-RES it was 0.373 µM (active); with OVCAR-4, 0.09 µM (active); in the test with OVCAR-5 it was 0.0935 µM (active). Besides, the GI50 in the test on OVCAR-8 was 0.0695 µM (active); with PC-3, 0.0643 µM (active); in the test on RXF 393, 0.184 µM (active); in the test on SF-268, < 0.0265 µM (active); in the test with SNB-75, 0.074 µM (active); with T47D, 0.0378 µM (active). In addition, the GI50 was < 0.0302 µM (active) in the test on U-251 and 0.0649 µM (active) with UACC-62.
With `c1ccc(/C(=N\Nc2nc3ccccc3s2)c2ccccn2)cc1`, the GI50 in the test on 786-0 was 2.36 µM (inactive); with A498 it was 6.15 µM (inactive); in the test with ACHN it was 0.815 µM (active); in the test with CAKI-1, 2.72 µM (inactive); in the test on CCRF-CEM, 0.0603 µM (active); in the test with EKVX, 0.41 µM (active). The GI50 is 1.88 µM (inactive) with HCT-116; 4.69 µM (inactive) in the test with IGROV-1; 0.649 µM (active) in the test on Malme-3M; 2.7 µM (inactive) with NCI/ADR-RES; 2.66 µM (inactive) in the test on OVCAR-4; 3.91 µM (inactive) in the test with OVCAR-5. Moreover, the GI50 in the test on OVCAR-8 was 2.52 µM (inactive); in the test with PC-3, 5.7 µM (inactive); in the test on RXF 393, 4.3 µM (inactive); with SF-268, 3.13 µM (inactive); with SNB-75, 19.7 µM (inactive); in the test with T47D it was < 0.0248 µM (active). Besides, the GI50 in the test with U-251 was 2.84 µM (inactive); in the test on UACC-62, 3.66 µM (inactive).
In the case of `COC(=O)c1c(C)cccc1C1CN=NC12Cc1cc(C)cc(C)c1C2=O` (stereo not given), the GI50 was 42.7 µM (inactive) with 786-0; 24.9 µM (inactive) in the test on A498; 41.5 µM (inactive) in the test with ACHN; 24.9 µM (inactive) in the test on CAKI-1; 23 µM (inactive) in the test on CCRF-CEM; 39.2 µM (inactive) with EKVX. Also, the GI50 is 27.9 µM (inactive) in the test with HCT-116; 57.7 µM (inactive) in the test on IGROV-1; 26.2 µM (inactive) in the test on Malme-3M; 25.2 µM (inactive) with NCI/ADR-RES; 29.2 µM (inactive) in the test on OVCAR-4; 48 µM (inactive) in the test with OVCAR-5. In addition, the GI50 in the test with OVCAR-8 is 54.1 µM (inactive); in the test on PC-3, 30.1 µM (inactive); in the test with RXF 393, 34 µM (inactive); in the test with SF-268, 52.2 µM (inactive); with SNB-75, 27 µM (inactive); in the test with T47D it was 30.2 µM (inactive). Besides, the GI50 is 44.7 µM (inactive) with U-251 and 70.6 µM (inactive) with UACC-62.
In the case of `CC(C)CC(NC(O)[BH2-][N+](C)(C)C)C(=O)NC(Cc1ccccc1)C(=O)N[C@H]1c2ccsc2/C(=N/O)[C@H]1O` (stereo not given in full), the GI50 in the test with 786-0, in the test on A498, in the test with ACHN, in the test with CAKI-1, in the test on CCRF-CEM and in the test with EKVX was > 100 µM (inactive) throughout. The GI50 with HCT-116, in the test with IGROV-1, in the test with Malme-3M, in the test on NCI/ADR-RES, in the test on OVCAR-4 and in the test on OVCAR-5 was > 100 µM (inactive) throughout. Moreover, the GI50 in the test on OVCAR-8, with PC-3, with RXF 393, in the test on SF-268, in the test on SNB-75 and in the test with T47D was > 100 µM (inactive) throughout. For the same molecule, the GI50 with U-251 and in the test with UACC-62 was > 100 µM (inactive) in each case.
For the molecule `N=C1C(O)C2(I)c3ccccc3N3C(=N)C(O)C4c5ccccc5N1C4C32` (stereo not given), the GI50 in the test on 786-0 is 30.8 µM (inactive); with A498, > 100 µM (inactive); in the test on ACHN, 39.4 µM (inactive); in the test with CAKI-1, 93.5 µM (inactive); in the test on CCRF-CEM, 2.3 µM (inactive); with EKVX, > 100 µM (inactive). Moreover, the GI50 with HCT-116 is 36.7 µM (inactive); in the test on IGROV-1, 19.9 µM (inactive); in the test with Malme-3M it was 21.1 µM (inactive); in the test on NCI/ADR-RES, 61.2 µM (inactive); in the test with OVCAR-4, 16 µM (inactive); in the test with OVCAR-5, > 100 µM (inactive). Further, the GI50 in the test on OVCAR-8 is 33.5 µM (inactive); in the test with PC-3, 41.7 µM (inactive); in the test on RXF 393, > 100 µM (inactive); with SF-268, > 100 µM (inactive); with SNB-75 it was > 100 µM (inactive); in the test with T47D, > 100 µM (inactive). Moreover, the values for the GI50 in the test with U-251 and in the test with UACC-62 were 22.1 µM (inactive) and > 100 µM (inactive), respectively.
As to `O=C1NC(=O)C(F)(n2cc(F)c(=O)[nH]c2=O)C(O)N1` (stereo not given), the GI50 in the test on 786-0, with A498, in the test on ACHN, with CAKI-1, in the test on CCRF-CEM and in the test with EKVX was > 10 µM (inactive) throughout. The GI50 in the test on HCT-116, with IGROV-1, in the test on Malme-3M, with NCI/ADR-RES, in the test on OVCAR-4 and with OVCAR-5 was > 10 µM (inactive) in each case. Further, the GI50 in the test with OVCAR-8, in the test with PC-3, in the test on RXF 393, in the test with SF-268, with SNB-75 and in the test on T47D was > 10 µM (inactive) throughout. For the same molecule, the GI50 in the test on U-251 and with UACC-62 was > 10 µM (inactive) throughout.
